The values that follow come from patent US10730887B2, “Compound containing tricyclic heteroaryl group” (Hangzhou Innogate Pharma Co., Ltd., priority 2016, dated 2020).

pIC50: −log10 of the molar value. Bounds are passed on as bounds.

One series deals with SYK (Homo sapiens, UniProt P43405). As to the kind of experiment: Syk kinase activity inhibition, Caliper mobility shift assay. It is filed as biochemical. How it is done:
SYK protein kinase activity was determined using the Caliper mobility shift assay. The compound was dissolved in DMSO and diluted with kinase buffer (20 mM HEPES, 0.01% Triton X-100, 5 mM MgCl2, 1 mM MnCl2, 2 mM DTT), and 5 μL of 5 times final concentration was added to the 384-well plate Compound (10% DMSO). After adding 10 μL of 2.5-fold enzyme (with SYK) solution, incubate for 10 minutes at room temperature, and then add 10 μL of 2.5-fold substrate (Peptide FAM-P22 and ATP) solution. Incubate at 28° C. for 30 minutes, then stop the reaction by adding 25 μL of stop solution (100 mM HEPES, 0.015% Brij-35, 0.2% Coating Reagent #13, 50 mM EDTA, pH 7.5). Conversion rate data was read on a Caliper EZ Reader II (Caliper Life Sciences) The conversion rate was converted into inhibition rate data (% inhibition rate=(max−conversion rate)/(max−min)*100). Where max is the conversion of the DMSO control and min is the conversion of the enzyme-free control. Curves were plotted with compound concentration and inhibition rate on the horizontal and vertical coordinates, and the curve was fitted using XLFit excel add-in version 4.3.1 software and IC50 was calculated.

A further series has as its target Jak2 (Homo sapiens, UniProt O60674). As to the kind of experiment: Jak2 kinase activity inhibition, Caliper Reader. It is filed as biochemical. Here is the method: (§1) Kinase JAk1 and Jak2 enzyme inhibition IC50 evaluation experiments: The buffer was configured with the following components: 50 mM HEPES, pH 7.5, 0.00015% Brij-35. Compounds were placed in a concentration gradient in 100% DMSO and diluted to 10% DMSO with buffer and added to 384 well plates. For example, when the initial concentration of the compound is […], it is made into 12.5 μM with 100% DMSO, and diluted by 5 or 6 concentrations, and then diluted 10-fold with buffer to prepare an intermediate dilution of the compound containing 10% DMSO. Transfer 5 μL, to 384-well plate. The Jak1 and Jak2 enzymes were diluted to the optimal concentration with the following buffer: 50 mM HEPES, pH 7.5, 0.00015% Brij-35, 2 mM DTT. Transfer 10 μL to a 384-well plate and incubate with the compound for 10-15 minutes. The substrate was diluted to the optimal concentration with the following buffer: 50 mM HEPES, pH 7.5, 0.00015% Brij-35, 10 mM MgCl2, adenosine triphosphate at Km. The reaction was initiated by adding 10 μL to a 384-well plate and reacted at 28° C. for 1 hour. The conversion rate was then read using a Caliper Reader and the inhibition rate was calculated. The formula is as follows: Percent inhibition=(max−conversion)/(max−min)*100. Where max is the conversion of the DMSO control and min is the conversion of the enzyme-free control. Fit the IC50 value with XLFit excel add-in version 5.4.0.8. Fitting formula: Y=Bottom+(Top−Bottom)/(1+(IC50/X)^HillSlope).

Another series concerns the target Jak1 (Homo sapiens, UniProt P23458). As to the kind of experiment: Jak1 kinase activity inhibition, Caliper Reader. The series is classed as biochemical. How it is done:
as §1

Series [1] in a line: Pharmacokinetic study in mice, intragastric administration. It is filed as in vivo. Conditions: mouse, male ICR mice, PO dose 5 mg/kg, plasma. How it is done: Instrument: API4000+LC/MS instrument manufactured by AB Sciex. All measurement data was collected and processed by Analyst 1.6.3 software, and data was calculated and processed by Microsoft Excel. Using the DAS 3.2.8 software, the statistical moment method was used to calculate the pharmacokinetic parameters. t mainly includes kinetic parameters Tmax, T½, Cmax, AUC(0-t) and the like Column: ACQUITY UPLC BEH C18 (2.1 mm×50 mm, 1.7 μm), column temperature 40° C.; mobile phase A is water (0.1% formic acid+5 mM ammonium acetate), mobile phase B is acetonitrile (0.1% acetic acid). The flow rate was 0.30 ml/min and the isocratic elution of 90% B was maintained for 1.5 minutes. Injection volume: 5 μL.
Animals: 12 male ICR mice, weighing 22-26 g, were used after 2 days of feeding in the laboratory of the experimental animal center. They were fasted 12 hours before the administration and 4 hours after the administration, and were free to drink during the test. Mice were randomly divided into four groups of 3 animals each. After intragastric administration, blood samples were taken at two different time points in each group.
Solvent: 0.5% Methylcellulose (aqueous solution containing 0.4% Tween 80). Formulation of intragastric administration solution. The compound is accurately weighed, added to the solvent, and sonicated at room temperature for 5 minutes to completely dissolve the drug to prepare a drug solution of 0.33 mg/ml.
Drug sample: A representative compound of the structure represented by the patent formula (I) of the present invention generally adopts a plurality of samples having similar structures (molecular weight difference of more than 2 units), accurately weighed, and administered together (cassette PK). This allows multiple compounds to be screened simultaneously and their oral absorption rates compared. Single drug administration was also used to study the pharmacokinetics of drug samples in mice.
Blood was taken from the eyelids at 0.25, 0.5, 1, 2, 4, 8, 12, and 24 hours after intragastric administration. In the heparin-treated tube, the supernatant was centrifuged for LC-MS/MS analysis.
Accurately weigh the compounds to different concentrations, perform quantitative analysis on the mass spectrometer to establish a standard curve, and then test the concentration of the compound in the above plasma to obtain the concentration of the compound at different time points. All the measured data were collected and processed by the relevant software, and the statistical moment method was used to calculate the pharmacokinetic parameters (mainly including the kinetic parameters Tmax, T1/2, Cmax, AUC(0-t), etc.).

Another series has as its target T1, FLT3 (Homo sapiens, UniProt P36888).
T1 sequence (P36888 27-993): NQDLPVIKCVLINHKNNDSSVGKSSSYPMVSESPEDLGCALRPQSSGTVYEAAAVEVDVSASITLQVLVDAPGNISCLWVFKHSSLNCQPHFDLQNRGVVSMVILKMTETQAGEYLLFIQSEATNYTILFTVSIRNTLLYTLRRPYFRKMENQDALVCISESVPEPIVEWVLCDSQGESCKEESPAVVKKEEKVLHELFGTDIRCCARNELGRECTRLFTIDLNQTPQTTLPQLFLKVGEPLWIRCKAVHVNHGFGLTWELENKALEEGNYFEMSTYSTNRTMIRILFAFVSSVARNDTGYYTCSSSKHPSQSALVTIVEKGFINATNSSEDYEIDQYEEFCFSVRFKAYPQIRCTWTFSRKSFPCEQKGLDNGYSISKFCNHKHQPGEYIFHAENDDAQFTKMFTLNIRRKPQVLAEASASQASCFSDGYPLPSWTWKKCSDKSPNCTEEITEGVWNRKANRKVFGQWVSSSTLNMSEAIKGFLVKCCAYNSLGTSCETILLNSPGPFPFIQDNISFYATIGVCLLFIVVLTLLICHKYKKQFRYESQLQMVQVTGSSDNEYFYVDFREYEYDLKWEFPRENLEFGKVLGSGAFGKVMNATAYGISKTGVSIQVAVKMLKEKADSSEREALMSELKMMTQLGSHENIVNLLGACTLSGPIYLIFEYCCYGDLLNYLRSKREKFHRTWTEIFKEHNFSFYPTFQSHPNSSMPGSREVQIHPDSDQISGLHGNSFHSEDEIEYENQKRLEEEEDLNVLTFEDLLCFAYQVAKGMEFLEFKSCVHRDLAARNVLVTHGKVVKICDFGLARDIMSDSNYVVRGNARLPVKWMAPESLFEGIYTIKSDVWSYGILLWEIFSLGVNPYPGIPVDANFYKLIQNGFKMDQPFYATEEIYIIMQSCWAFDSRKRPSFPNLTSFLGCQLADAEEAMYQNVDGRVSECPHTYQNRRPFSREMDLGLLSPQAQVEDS
As to the kind of experiment: FLT3 kinase activity inhibition, Caliper mobility shift assay. The series is classed as biochemical. How it is done:
FLT3 protein kinase activity was measured using the Caliper mobility shift assay. The compound was dissolved in DMSO and diluted with a kinase buffer (50 mM HEPES, pH 7.5, 0.0015% Brij-35, 2 mM DTT), and 5 μL of a 5-fold final concentration of the compound (10% DMSO) was added to a 384-well plate. After adding 10 μL of 2.5-fold FLT3 enzyme solution, incubate for 10 minutes at room temperature, and then add 10 μL of a 2.5-fold substrate (FAM-labeled polypeptide and ATP) solution. After incubation at 28° C. for 60 minutes, the reaction was stopped by adding 25 μL of stop solution (100 mM HEPES, 0.015% Brij-35, 0.2% Coating Reagent #3, 50 mM EDTA, pH 7.5). Conversion rate data was read on a Caliper EZ Reader II (Caliper Life Sciences). The conversion rate was converted into inhibition rate data (% inhibition rate=(max−conversion rate)/(max−min)*100). Where max is the conversion of the DMSO control and min is the conversion of the enzyme-free control Curves were plotted with compound concentration and inhibition rate on the horizontal and vertical coordinates, and the curve was fitted using XLFit excel add-in version 4.3.1 software and IC50 was calculated.

Sequence of Jak1 (P23458 whole entry, species assumed): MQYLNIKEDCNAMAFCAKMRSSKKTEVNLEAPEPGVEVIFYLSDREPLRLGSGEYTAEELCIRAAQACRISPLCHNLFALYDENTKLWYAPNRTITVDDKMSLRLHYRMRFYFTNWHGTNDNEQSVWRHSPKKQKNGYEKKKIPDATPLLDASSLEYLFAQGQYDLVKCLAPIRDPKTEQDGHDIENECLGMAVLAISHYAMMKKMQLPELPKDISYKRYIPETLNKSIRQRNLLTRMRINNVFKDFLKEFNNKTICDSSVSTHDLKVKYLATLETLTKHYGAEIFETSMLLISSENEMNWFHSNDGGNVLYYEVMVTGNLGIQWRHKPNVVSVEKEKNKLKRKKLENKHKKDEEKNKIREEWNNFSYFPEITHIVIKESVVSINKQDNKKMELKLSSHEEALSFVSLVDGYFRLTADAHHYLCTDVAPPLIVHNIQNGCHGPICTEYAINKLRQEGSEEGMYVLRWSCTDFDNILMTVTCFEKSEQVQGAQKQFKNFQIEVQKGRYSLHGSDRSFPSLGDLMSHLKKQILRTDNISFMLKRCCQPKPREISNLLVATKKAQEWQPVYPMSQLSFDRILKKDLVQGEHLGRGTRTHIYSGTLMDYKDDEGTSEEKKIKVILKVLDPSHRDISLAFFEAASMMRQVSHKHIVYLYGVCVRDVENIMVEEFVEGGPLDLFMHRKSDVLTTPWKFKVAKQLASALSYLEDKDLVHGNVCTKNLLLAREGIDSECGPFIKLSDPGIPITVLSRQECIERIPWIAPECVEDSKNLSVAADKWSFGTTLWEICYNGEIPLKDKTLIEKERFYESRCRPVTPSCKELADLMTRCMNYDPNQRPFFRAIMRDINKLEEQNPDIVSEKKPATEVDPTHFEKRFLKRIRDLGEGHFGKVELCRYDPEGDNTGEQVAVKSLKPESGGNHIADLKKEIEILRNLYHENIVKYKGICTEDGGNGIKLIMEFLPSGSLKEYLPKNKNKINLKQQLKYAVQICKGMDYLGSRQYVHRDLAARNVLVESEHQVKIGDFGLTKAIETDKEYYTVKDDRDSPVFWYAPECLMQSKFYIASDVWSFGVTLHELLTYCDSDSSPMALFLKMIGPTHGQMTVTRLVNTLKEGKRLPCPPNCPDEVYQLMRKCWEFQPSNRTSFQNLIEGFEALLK
Sequence of Jak2 (O60674 whole entry, species assumed): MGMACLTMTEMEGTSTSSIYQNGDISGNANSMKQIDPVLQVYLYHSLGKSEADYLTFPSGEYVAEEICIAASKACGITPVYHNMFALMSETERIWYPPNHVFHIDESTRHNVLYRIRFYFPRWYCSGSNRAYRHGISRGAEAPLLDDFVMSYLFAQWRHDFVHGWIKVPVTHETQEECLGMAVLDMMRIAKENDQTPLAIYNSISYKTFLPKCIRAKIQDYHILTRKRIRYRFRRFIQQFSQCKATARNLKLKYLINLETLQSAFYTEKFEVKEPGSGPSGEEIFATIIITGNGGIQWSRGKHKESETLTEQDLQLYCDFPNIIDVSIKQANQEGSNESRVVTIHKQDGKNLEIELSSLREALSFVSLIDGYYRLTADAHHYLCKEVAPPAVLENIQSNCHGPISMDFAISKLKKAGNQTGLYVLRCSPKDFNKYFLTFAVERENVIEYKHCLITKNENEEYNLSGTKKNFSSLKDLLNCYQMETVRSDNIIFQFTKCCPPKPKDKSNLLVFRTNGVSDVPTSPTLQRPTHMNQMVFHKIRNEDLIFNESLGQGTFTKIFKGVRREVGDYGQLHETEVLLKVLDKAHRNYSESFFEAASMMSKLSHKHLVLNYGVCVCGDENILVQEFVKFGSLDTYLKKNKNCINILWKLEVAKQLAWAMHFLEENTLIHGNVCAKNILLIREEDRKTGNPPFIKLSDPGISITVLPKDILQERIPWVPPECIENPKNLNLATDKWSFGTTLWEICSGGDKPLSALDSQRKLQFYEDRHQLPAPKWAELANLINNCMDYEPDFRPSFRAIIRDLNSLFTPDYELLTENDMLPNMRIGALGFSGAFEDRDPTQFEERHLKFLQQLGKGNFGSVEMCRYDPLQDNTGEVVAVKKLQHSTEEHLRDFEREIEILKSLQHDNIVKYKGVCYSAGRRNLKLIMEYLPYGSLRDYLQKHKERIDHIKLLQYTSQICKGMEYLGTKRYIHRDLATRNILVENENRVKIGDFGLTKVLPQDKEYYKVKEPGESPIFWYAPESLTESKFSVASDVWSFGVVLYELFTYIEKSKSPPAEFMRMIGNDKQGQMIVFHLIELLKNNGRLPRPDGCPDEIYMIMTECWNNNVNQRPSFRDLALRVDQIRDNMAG

On to `CCS(=O)(=O)N1CCN2c3ccc(Nc4ncc(C(N)=O)c(NC5CC5)n4)cc3OC[C@H]2C1` [Compound C1R], for which the values for the pIC50 on SYK, at Jak2 and against Jak1 were more than 8.00, more than 8.00 and more than 7.00, respectively.

With `CN1CCC(N2CCN3c4ccc(Nc5ncc(C(N)=O)c(NC6CC6)n5)cc4OC[C@H]3C2)CC1` [Compound C2R], the pIC50 at SYK was more than 7.30; at Jak2, more than 7.70; at Jak1 it was more than 6.30.

With `CC(=O)N1CCN2c3ccc(Nc4ncc(C(N)=O)c(NC5CC5)n4)cc3OC[C@H]2C1` [Compound C3R], the pIC50 was more than 7.30 at SYK, more than 8.00 at Jak2 and more than 7.00 against Jak1.

Take `NC(=O)c1cnc(Nc2ccc3c(c2)OC[C@H]2CN(C4CCOCC4)CCN32)nc1NC1CC1` [Compound C4R]: the pIC50 at SYK is more than 7.30; against Jak2 it was more than 7.70; against Jak1 it was more than 6.30.

For the molecule `CN1CCN2c3ccc(Nc4ncc(C(N)=O)c(NC5CC5)n4)cc3OC[C@H]2C1` [Compound C5R], the pIC50 on SYK is more than 7.30; at Jak2, more than 8.00; against Jak1, more than 7.00.

Take `NC(=O)c1cnc(Nc2ccc3c(c2)OC[C@H]2CN(C(=O)C(F)(F)F)CCN32)nc1NC1CC1` [Compound C6R]: the figures for the pIC50 at SYK, against Jak2 and against Jak1 were more than 7.30, more than 7.30 and more than 6.30, respectively.

In the case of `NC(=O)c1cnc(Nc2ccc3c(c2)OC[C@H]2CN(S(=O)(=O)C4CC4)CCN32)nc1NC1CC1` [Compound C10R], the pIC50 at SYK is more than 8.00. The molecule also gave a pIC50 against Jak2 of more than 8.00. In addition, in series [1], the concentration peaked (Cmax) at 451 ng/mL, the Tmax is 30 min and the half-life was 145 min. For the same molecule, the AUC(0-t) in series [1] (read-out: AUC(0-24)) amounted to 1240 ng·h/mL.

With `CCc1nc(C(N)=O)c(Nc2ccc3c(c2)OC[C@H]2COCCN32)nc1NC1CCOCC1` [Compound D2R], at FLT3, the negative-log IC50 (pIC50) was more than 8.00.

For `CCc1nc(C(N)=O)c(Nc2ccc3c(c2)OC[C@@H]2COCCN32)nc1NC1CCOCC1` [Compound D2S], the negative-log IC50 (pIC50) at FLT3 is more than 8.00.

`CCc1nc(C(N)=O)c(Nc2ccc3c(c2)OC[C@H]2CN(CC(F)(F)F)CCN32)nc1NC1CCOCC1` [Compound D3R]: the pIC50 at FLT3 was more than 8.00.

For the molecule `CCc1nc(C(N)=O)c(Nc2ccc3c(c2)OC[C@H]2CN(C4CC4)CCN32)nc1NC1CCOCC1` [Compound D4R], at FLT3, the pIC50 is more than 9.00.

As for `CCc1nc(C(N)=O)c(Nc2ccc3c(c2)OC[C@@H]2CN(C)CC(=O)N32)nc1NC1CCOCC1` [Compound D5S], the pIC50 on FLT3 is more than 8.00.
